31 compounds from US8703768B2, “Nitrogen containing heteroaryl compounds” (Hoffmann-La Roche Inc., priority 2010, dated 2014) can be followed below.

In general, IC50 refers to the concentration at which inhibition is half-maximal.

The target in this experiment is human PDE10A (Homo sapiens (Human), UniProt Q9Y233). Put plainly: human PDE10A full length Scintillation Proximity Assay (SPA). Particulars: 50 nM cGMP and 50 nM [3H]-cGMP, 20 minutes at room temperature; read-out: PDE10A inhibition IC50. Format: biochemical. The method, boiled down:
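Full-length enzyme incubated with compounds; reaction started with cGMP plus [^3H]-cGMP substrate and run 20 min at room temperature. Stopped with yttrium silicate SPA beads in 18 mM zinc sulphate, 1 h shaking, then scintillation counting; background from enzyme-free wells.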

human PDE10A, sequence (Q9Y233 other isoform, or with tags, fused parts or gaps): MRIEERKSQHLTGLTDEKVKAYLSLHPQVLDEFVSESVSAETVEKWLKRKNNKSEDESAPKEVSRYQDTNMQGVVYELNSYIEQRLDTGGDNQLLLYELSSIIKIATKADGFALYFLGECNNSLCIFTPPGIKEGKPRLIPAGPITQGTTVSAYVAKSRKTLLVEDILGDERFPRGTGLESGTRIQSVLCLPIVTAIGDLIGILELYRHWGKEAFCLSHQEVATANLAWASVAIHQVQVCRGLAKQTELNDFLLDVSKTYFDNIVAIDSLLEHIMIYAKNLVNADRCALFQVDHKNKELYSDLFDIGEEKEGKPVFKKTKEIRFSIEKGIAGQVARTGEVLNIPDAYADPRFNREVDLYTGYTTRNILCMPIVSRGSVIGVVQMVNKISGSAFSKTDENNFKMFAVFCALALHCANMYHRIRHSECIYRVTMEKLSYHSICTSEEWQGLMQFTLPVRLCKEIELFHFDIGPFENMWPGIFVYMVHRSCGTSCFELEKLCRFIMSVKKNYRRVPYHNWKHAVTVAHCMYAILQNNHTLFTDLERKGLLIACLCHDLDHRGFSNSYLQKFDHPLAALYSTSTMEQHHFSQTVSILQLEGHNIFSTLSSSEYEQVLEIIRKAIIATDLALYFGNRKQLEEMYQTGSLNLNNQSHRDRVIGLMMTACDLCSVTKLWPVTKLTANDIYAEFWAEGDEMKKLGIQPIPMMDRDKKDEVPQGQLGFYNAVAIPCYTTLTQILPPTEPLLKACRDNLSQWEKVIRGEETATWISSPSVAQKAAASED

As to `CC(C)(O)CNC(=O)c1ccc(F)cc1NC(=O)c1nc(C2CC2)cnc1Nc1cncnc1` [Example 301, 6-Cyclopropyl-3-(pyrimidin-5-ylamino)-pyrazine-2-carboxylic acid [5-fluoro-2-(2-hydroxy-2-methyl-propylcarbamoyl)-phenyl]-amide], the half-inhibitory concentration (IC50) was 0.4 nM.
Consider `CCOC(=O)CCc1ccc(NC(=O)c2nc(C3CC3)cnc2Nc2cncnc2)c(C(=O)NC)c1` [Example 321, 3-(4-{[6-Cyclopropyl-3-(pyrimidin-5-ylamino)-pyrazine-2-carbonyl]-amino}-3-methylcarbamoyl-phenyl)-propionic acid ethyl ester], for which the IC50 worked out at 0.6 nM.
With `CNC(=O)c1nn(C)cc1NC(=O)c1nc(C2CC2)ncc1Nc1cncnc1` [Example 76, 2-Cyclopropyl-5-(pyrimidin-5-ylamino)-pyrimidine-4-carboxylic acid (1-methyl-3-methylcarbamoyl-1H-pyrazol-4-yl)-amide] the figure was 7.9 nM; with `COC1CCN(C(=O)c2ccncc2NC(=O)c2nc(C3CC3)ccc2Nc2cncnc2)C1` (stereo not shown) [Example 62, 6-Cyclopropyl-3-(pyrimidin-5-ylamino)-pyridine-2-carboxylic acid [4-(3-methoxy-pyrrolidine-1-carbonyl)-pyridin-3-yl]-amide], 93.9 nM.
For the compound `CNC(=O)c1c(NC(=O)c2nc(C3CC3)ccc2Nc2cncnc2)cnn1CC1CC1` [Example 13, 6-Cyclopropyl-3-(pyrimidin-5-ylamino)-pyridine-2-carboxylic acid (1-cyclopropylmethyl-5-methylcarbamoyl-1H-pyrazol-4-yl)-amide], the IC50 came to 256 nM.
Take `CN(CCCO)C(=O)c1nn(C)cc1NC(=O)c1nc(C2CC2)ccc1Nc1cncnc1` [Example 38, 6-Cyclopropyl-3-(pyrimidin-5-ylamino)-pyridine-2-carboxylic acid {3-[(3-hydroxy-propyl)-methyl-carbamoyl]-1-methyl-1H-pyrazol-4-yl}-amide]: the half-inhibitory concentration (IC50) stood at 7.2 nM.
As for `CC(C)N(C)C(=O)c1c(NC(=O)c2nc(C3CC3)cnc2Nc2cncnc2)cnn1C` [Example 227, 6-Cyclopropyl-3-(pyrimidin-5-ylamino)-pyrazine-2-carboxylic acid [5-(isopropyl-methyl-carbamoyl)-1-methyl-1H-pyrazol-4-yl]-amide], the 50% inhibitory concentration (IC50) worked out at 64.1 nM.
With `Cn1cc(NC(=O)c2nc(C3CC3)ccc2Nc2cncnc2)c(C(N)=O)n1` [Example 3, 6-Cyclopropyl-3-(pyrimidin-5-ylamino)-pyridine-2-carboxylic acid (3-carbamoyl-1-methyl-1H-pyrazol-4-yl)-amide], the half-maximal inhibitory concentration (IC50) worked out at 7.5 nM.
Then `CCn1ncc(NC(=O)c2nc(C3CC3)cnc2Nc2cncnc2)c1C(=O)N(C)C` [Example 169, 6-Cyclopropyl-3-(pyrimidin-5-ylamino)-pyrazine-2-carboxylic acid (5-dimethylcarbamoyl-1-ethyl-1H-pyrazol-4-yl)-amide], with 22.3 nM; and `Cc1ccc(NC(=O)c2nc(C3CC3)cnc2Nc2cncnc2)c(C(=O)N(C)C)n1` [Example 268, 6-Cyclopropyl-3-(pyrimidin-5-ylamino)-pyrazine-2-carboxylic acid (2-dimethylcarbamoyl-6-methyl-pyridin-3-yl)-amide], with 14.9 nM; and `Cn1ncc(NC(=O)c2nc(C3CC3)c(C3CCCO3)nc2Nc2cncnc2)c1C(=O)NCCF` (stereo not shown) [Example 162, 6-Cyclopropyl-3-(pyrimidin-5-ylamino)-5-(tetrahydro-furan-2-yl)-pyrazine-2-carboxylic acid [5-(2-fluoro-ethylcarbamoyl)-1-methyl-1H-pyrazol-4-yl]-amide], with 124 nM.
For the compound `CNC(=O)c1nn(C)cc1NC(=O)c1nc(C(C)O)cnc1Nc1cncnc1` (stereo not shown) [Example 115, 6-(1-Hydroxy-ethyl)-3-(pyrimidin-5-ylamino)-pyrazine-2-carboxylic acid (1-methyl-3-methylcarbamoyl-1H-pyrazol-4-yl)-amide], the IC50 is 171 nM.
As for `CNC(=O)c1nnsc1NC(=O)c1nc(C2CC2)ccc1Nc1cncnc1` [Example 54, 6-Cyclopropyl-3-(pyrimidin-5-ylamino)-pyridine-2-carboxylic acid (4-methylcarbamoyl-[1,2,3]thiadiazol-5-yl)-amide], the IC50 came out at 25 nM.
With `CNC(=O)c1c(NC(=O)c2nc(C3CC3)cnc2Nc2cncnc2)cnn1CC1CCOC1` (stereo not shown) [Example 286, 6-Cyclopropyl-3-(pyrimidin-5-ylamino)-pyrazine-2-carboxylic acid [5-methylcarbamoyl-1-(tetrahydro-furan-3-ylmethyl)-1H-pyrazol-4-yl]-amide] the figure was 43.2 nM.
With `O=C(NCC1CCCO1)c1ccncc1NC(=O)c1nc(C2CC2)cnc1Nc1cncnc1` (stereo not shown) [Example 101, 6-Cyclopropyl-3-(pyrimidin-5-ylamino)-pyrazine-2-carboxylic acid {4-[(tetrahydro-furan-2-ylmethyl)-carbamoyl]-pyridin-3-yl}-amide] the figure was 1.5 nM; with `Cn1cc(NC(=O)c2nc(C3CC3)ccc2Nc2cncnc2)c(C(=O)NC2CCCCC2)n1` [Example 28, 6-Cyclopropyl-3-(pyrimidin-5-ylamino)-pyridine-2-carboxylic acid (3-cyclohexylcarbamoyl-1-methyl-1H-pyrazol-4-yl)-amide], 6 nM; with `CN(CC(C)(C)O)C(=O)c1ncccc1NC(=O)c1nc(C2CC2)cnc1Nc1cncnc1` [Example 123, 6-Cyclopropyl-3-(pyrimidin-5-ylamino)-pyrazine-2-carboxylic acid {2-[(2-hydroxy-2-methyl-propyl)-methyl-carbamoyl]-pyridin-3-yl}-amide], 9.6 nM.
As to `O=C(Nc1ccc(C2CC2)nc1C(=O)N1CCC1)c1nc(C2CC2)cnc1Nc1cncnc1` [Example 272, 6-Cyclopropyl-3-(pyrimidin-5-ylamino)-pyrazine-2-carboxylic acid [2-(azetidine-1-carbonyl)-6-cyclopropyl-pyridin-3-yl]-amide], the 50% inhibitory concentration (IC50) came out at 8.5 nM.
Regarding `O=C(NC1CCCCC1)c1ccncc1NC(=O)c1nc(C2CC2)ccc1Nc1cncnc1` [Example 78, 6-Cyclopropyl-3-(pyrimidin-5-ylamino)-pyridine-2-carboxylic acid (4-cyclohexylcarbamoyl-pyridin-3-yl)-amide], the half-inhibitory concentration (IC50) was found to be 2 nM.
`Cn1cc(NC(=O)c2nc(C3CC3)ccc2Nc2cncnc2)c(C(=O)NC2CCC2)n1` [Example 33, 6-Cyclopropyl-3-(pyrimidin-5-ylamino)-pyridine-2-carboxylic acid (3-cyclobutylcarbamoyl-1-methyl-1H-pyrazol-4-yl)-amide]: the IC50 is 3.1 nM.
For `O=C(Nc1ccc(F)c(F)c1C(=O)N1CCC1)c1nc(C2CC2)cnc1Nc1cncnc1` [Example 319, 6-Cyclopropyl-3-(pyrimidin-5-ylamino)-pyrazine-2-carboxylic acid [2-(azetidine-1-carbonyl)-3,4-difluoro-phenyl]-amide], the concentration for half-maximal inhibition (IC50) amounted to 15.5 nM.
As to `CCn1ncc(NC(=O)c2nc(C3CC3)cnc2Nc2cncnc2)c1C(=O)N1CCOCC1` [Example 170, 6-Cyclopropyl-3-(pyrimidin-5-ylamino)-pyrazine-2-carboxylic acid [1-ethyl-5-(morpholine-4-carbonyl)-1H-pyrazol-4-yl]-amide], the IC50 is 88.9 nM.
As to `O=C(NC1COC1)c1ncccc1NC(=O)c1nc(C2CC2)cnc1Nc1cncnc1` [Example 277, 6-Cyclopropyl-3-(pyrimidin-5-ylamino)-pyrazine-2-carboxylic acid [2-(oxetan-3-ylcarbamoyl)-pyridin-3-yl]-amide], the IC50 turned out to be 2.7 nM.
On to `CCNC(=O)c1ncccc1NC(=O)c1nc(C2CC2)cnc1Nc1cncnc1` [Example 220, 6-Cyclopropyl-3-(pyrimidin-5-ylamino)-pyrazine-2-carboxylic acid (2-ethylcarbamoyl-pyridin-3-yl)-amide], for which the IC50 is 2.3 nM.
Take `CNC(=O)c1cc(F)c(F)cc1NC(=O)c1nc(C2CC2)cnc1Nc1cncnc1` [Example 288, 6-Cyclopropyl-3-(pyrimidin-5-ylamino)-pyrazine-2-carboxylic acid (4,5-difluoro-2-methylcarbamoyl-phenyl)-amide]: the half-maximal inhibitory concentration (IC50) amounted to 0.8 nM.
Take `CC(C)(O)CNC(=O)c1ncccc1NC(=O)c1nc(C2CC2)cnc1Nc1cncnc1` [Example 98, 6-Cyclopropyl-3-(pyrimidin-5-ylamino)-pyrazine-2-carboxylic acid [2-(2-hydroxy-2-methyl-propylcarbamoyl)-pyridin-3-yl]-amide]: the IC50 is 0.4 nM.
Turning to `CNC(=O)c1nn(C)cc1NC(=O)c1nc(C2CCOC2)ccc1Nc1cncnc1` (stereo not shown) [Example 127, 3-(Pyrimidin-5-ylamino)-6-(tetrahydro-furan-3-yl)-pyridine-2-carboxylic acid (1-methyl-3-methylcarbamoyl-1H-pyrazol-4-yl)-amide], the IC50 amounted to 8.5 nM.
Take `CNC(=O)c1cc(F)ccc1NC(=O)c1nc(C2CC2)cnc1Nc1cncnc1` [Example 312, 6-Cyclopropyl-3-(pyrimidin-5-ylamino)-pyrazine-2-carboxylic acid (4-fluoro-2-methylcarbamoyl-phenyl)-amide]: the IC50 was 0.8 nM.
With `CC(C)(O)CNC(=O)c1ccc(F)c(F)c1NC(=O)c1nc(C2CC2)cnc1Nc1cncnc1` [Example 326, 6-Cyclopropyl-3-(pyrimidin-5-ylamino)-pyrazine-2-carboxylic acid [2,3-difluoro-6-(2-hydroxy-2-methyl-propylcarbamoyl)-phenyl]-amide] the figure was 2.7 nM; with `CN(C)C(=O)c1cccc(F)c1NC(=O)c1nc(C2CC2)cnc1Nc1cncnc1` [Example 303, 6-Cyclopropyl-3-(pyrimidin-5-ylamino)-pyrazine-2-carboxylic acid (2-dimethylcarbamoyl-6-fluoro-phenyl)-amide], 368 nM; with `CN(C)C(=O)c1nn(CC(F)(F)F)cc1NC(=O)c1nc(C2CC2)ccc1Nc1cncnc1` [Example 7, 6-Cyclopropyl-3-(pyrimidin-5-ylamino)-pyridine-2-carboxylic acid [3-dimethylcarbamoyl-1-(2,2,2-trifluoro-ethyl)-1H-pyrazol-4-yl]-amide], 336 nM.
